This is an account of results in patent publication US20060251617A1, “Methods for treating lymphomas” (Chiron Corporation, priority 2005, published 2006).

In series [1] the test system is Daudi lymphoma tumor model. As to the kind of experiment: Pooled Daudi xenograft studies and assessment of synergistic activity (Example 5). The format is in vivo, BALB/c nude mice. The note with it: pooled studies; for Tumor response CR / Tumor response PR: number of mice, (n) in cell; for Tumor response RR: response rate; for TGI: vs. vehicle. On the procedure: (§1) Passaged, clonally derived Daudi cells (5×10^6 cells/mouse) were reconstituted with 50% Matrigel (BD Biosciences) in a total volume of 0.1 ml and implanted subcutaneously into the right flank of irradiated (3Gy) BALB/c nude mice. Treatments were initiated when the mean tumor volume was 150-300 mm^3. Mice were randomly assigned typically into 10 mice per group. […] Tumor volume is measured using calipers. Caliper measurements of tumors were converted into tumor volume (mm^3) using the formula: ½ (length (mm)×[width (mm)]^2). Tumor growth inhibition (TGI) was calculated as [1−(mean tumor volume of treated group/mean tumor volume of control group)×100]. […] Tumor growth delay (TGD) analysis was calculated as: [(number of days for a treated group to reach a mean tumor volume of 1000 mm^3)−(number of days for the control group to reach a mean tumor volume of 1000 mm^3)]. Percent conditional survival is the percent of mice in each group in which the tumor volume has not reached 1000 mm^3.
(§2) Multiple comparisons were performed using one-way analysis of variance (ANOVA); post-test to compare different treatment means was done using Student-Newman Keuls test (SigmaStat). Tumor growth delay for each animal (time to 1000 mm^3) was used as the endpoint for conditional survival, and significance between treatments was analysed using a log rank test (Prism). Mice that had no visible tumors at necropsy upon termination of the study were considered censored in this analysis. Differences were considered statistically significant at p<0.05.
Several studies of these agents and combinations of these agents were performed in the Daudi lymphoma tumor model. The data from these multiple experiments were then pooled together for further analysis (Table 10). In vivo drug synergy was evaluated from the response index of combination treatments using multiple drug effect analyses.

Series [2] relates to human B-cell lymphoma (Daudi) xenograft. Put plainly: Daudi xenograft model of human B-cell lymphoma: IL-2/CHOP/rituximab regimens (Example 1). The class given is in vivo, BALB/c nude mice. As for the experimental part: as §1, §2
See, e.g., Hudson et al., Leukemia (1998) 12:2029-2033 for a description of the Daudi xenograft model. The Daudi/BALB/c nude model expresses high levels of CD20 and is associated with a less aggressive/low grade disease profile. Furthermore, NK cells cannot lyse Daudi tumor cells in the absence of activation by cytokines such as IL-2. See, e.g., Damle et al., J. Immunol. (1987) 138:1779-1785.
120 athymic nude BALB/c mice were acclimated for 1 week to the inoculation of Daudi human B-cell lines. Daudi cells (5×10^6 cells/mouse) were implanted s.c. (right flank) into irradiated young nude mice (3Gy for approximately 3.2 minutes) with 50% matrigel at a volume of 0.1 ml and grown as subcutaneous tumors until tumor volume reached 110 mm^3. This was designated study day 1.
Clinical observations were noted.
(A xenograft is tissue or cells of one species grown in another, often human tumour cells in immunodeficient mice.)

Series [3] has the same test system. Put plainly: Daudi xenograft model: IL-2 with CHOP and individual CHOP constituents (Example 2). The format is in vivo, BALB/c nude mice. The note with it: for Median Tumor Growth delay / Response rate (CR/PR): CR / Response rate (CR/PR): PR: Table 9, n = 10-20 mice/group; for CR/PR on day 28: CR: number of mice with complete response; for CR/PR on day 28: PR: number of mice with partial response; for Group Mean Days of Delay to 1000 mm^3: vs. control group. On the procedure: as §1
Athymic nude BALB/c mice (10 mice/group) were acclimated and irradiated mice were implanted with Daudi cells as described above. Treatment started when tumors were approximately 140 mm^3. This was designated study day 1.
Treatment groups were as follows:
Doxorubicin (H, adriamycin), 3.3 mg/kg, i.v, day 1;
Vincristine (O), 0.5 mg/kg, i.v, day 1;
Prednisone (P), 0.2 mg/kg p.o, days 1-5;
Proleukin® (IL-2), 1 mg/kg; s.c., thrice weekly for 4 weeks, total 12 doses;
Proleukin® (IL-2)+individual chemotherapeutics (as dosed individually, started on day 1);
Proleukin® (IL-2)+CHOP (similar dosing regimens to single agents, started on day 1).

A short description of series [4]: Body weight, clinical observations and tolerability in Daudi tumor-bearing mice. To be noted: Example 5.
Procedure: (§3) Proleukin® treatment (1 mg/kg; s.c., thrice weekly) commenced either concomitantly (on day 8) or one week later (day 15) for a total of 4 weeks. […] Tumor volumes and body weights were measured two times per week. Clinical observations were noted.
For series [5] the following is noted: mouse, in vivo.
Procedure: as §3

Regarding “des-alanyl-1, serine-125 human interleukin-2 [IL-2]”, in series [1], the “Growth delay” value turned out to be 2 days, the “Tumor response CR” value came to 2, the “Tumor response PR” value is listed as 1 and the “Tumor response RR” value stood at 5%. Further, in series [2] (mouse, in vivo), the “CR/PR day 29: CR” value is listed as 0/0, the “CR/PR day 29: PR” value was 0/0, the “CR/PR day 164: CR” value is 1/0 and the “CR/PR day 164: PR” value was 1/0. Also, the “tumor growth / efficacy in words” value in series [2] (mouse, in vivo) was “significantly inhibited tumor growth”. Besides, in series [2] (time for tumor to reach 1000 mm3), the “median conditional survival (days to 1000 mm3)” value is 25 days. Also, the “TGI day 29” value in series [2] (tumor growth inhibition vs. vehicle, day 29, n = 10) is 33.52%. In series [3], the “Median Tumor Growth delay” value was determined as 2 days, the “Response rate (CR/PR): CR” value is recorded as 0/0, the “Response rate (CR/PR): PR” value was 0/0 and the “CR/PR on day 28: CR” value was 0/0. In series [3], the “CR/PR on day 28: PR” value is 0/0 and the “Group Mean Days of Delay to 1000 mm^3” value came to 2 days. Further, the tolerability entry in series [4] is recorded as “well-tolerated”. In series [5], the “% max BW. change (day, range)” value is recorded as 12(+8 to +14) day 39% and the “Clinical Observation” value is reported as “BAR”.
For the molecule `COc1cccc2c1C(=O)c1c(O)c3c(c(O)c1C2=O)C[C@@](O)(C(=O)CO)C[C@@H]3O[C@H]1C[C@H](N)[C@H](O)[C@H](C)O1` [Doxorubicin], in series [1], the “Growth delay” value amounted to 2 days, the “Tumor response CR” value is reported as 0%; 0/0 (10), the “Tumor response PR” value is 0%; 0/0 (10) and the “Tumor response RR” value was 0%; 0/0 (10). Moreover, the TGI in series [1] is 9%, p > 0.05. For the same molecule, in series [3], the “Median Tumor Growth delay” value is reported as 2 days, the “Response rate (CR/PR): CR” value is given as 0/0, the “Response rate (CR/PR): PR” value is given as 0/0 and the “CR/PR on day 28: CR” value was 0/0. Besides, in series [3], the “CR/PR on day 28: PR” value is given as 0/0 and the “Group Mean Days of Delay to 1000 mm^3” value came out at 2 days.
With `CC[C@]1(O)C[C@H]2CN(CCc3c([nH]c4ccccc34)[C@@](C(=O)OC)(c3cc4c(cc3OC)N(C=O)[C@H]3[C@@](O)(C(=O)OC)[C@H](OC(C)=O)[C@]5(CC)C=CCN6CC[C@]43[C@@H]65)C2)C1` [Vincristine], in series [1], the “Growth delay” value stood at 12 days, the “Tumor response CR” value is given as 0%; 0/0 (10), the “Tumor response PR” value is 0%; 0/0 (10) and the “Tumor response RR” value is on record as 0%; 0/0 (10). In addition, in series [3], the “Median Tumor Growth delay” value is recorded as 12 days, the “Response rate (CR/PR): CR” value is on record as 0/0, the “Response rate (CR/PR): PR” value was 0/0 and the “CR/PR on day 28: CR” value is on record as 0/0. In series [3], the “CR/PR on day 28: PR” value is 0/0 and the “Group Mean Days of Delay to 1000 mm^3” value was 12 days.
Regarding `O=P1(N(CCCl)CCCl)NCCCO1` (stereo not drawn) [Cyclophosphamide, cyclophosphamide], in series [1], the “Growth delay” value was 1 days, the “Tumor response CR” value is listed as 0%; 0/0 (10), the “Tumor response PR” value is on record as 0%; 0/0 (10) and the “Tumor response RR” value was 0%; 0/0 (10). Also, in series [1], the TGI was 2%, p > 0.05. In addition, in series [3], the “Median Tumor Growth delay” value came out at 1 days, the “Response rate (CR/PR): CR” value was 0/0, the “Response rate (CR/PR): PR” value is on record as 0/0 and the “CR/PR on day 28: CR” value is recorded as 0/0. Moreover, in series [3], the “CR/PR on day 28: PR” value is reported as 0/0 and the “Group Mean Days of Delay to 1000 mm^3” value stood at 1 days.
Regarding `C[C@]12C=CC(=O)C=C1CC[C@@H]1[C@@H]2C(=O)C[C@@]2(C)[C@H]1CC[C@]2(O)C(=O)CO` [Prednisone], in series [1], the “Growth delay” value worked out at 2 days, the “Tumor response CR” value was 1, the “Tumor response PR” value is 0 and the “Tumor response RR” value came out at 10%. Further, the TGI in series [1] is 10%, p > 0.05. In addition, in series [3], the “Median Tumor Growth delay” value came out at 2 days, the “Response rate (CR/PR): CR” value was determined as 1, the “Response rate (CR/PR): PR” value was 0 and the “CR/PR on day 28: CR” value is given as 1. In addition, in series [3], the “CR/PR on day 28: PR” value was determined as 0 and the “Group Mean Days of Delay to 1000 mm^3” value came out at 2 days.
